Measured values as given in patent publication US20260138949A1, “NOVEL COMPOUND AS PHOSPHOLIPASE D INHIBITOR AND USE THEREOF” (UIF (UNIVERSITY INDUSTRY FOUNDATION), YONSEI UNIVERSITY, priority 2022, published 2026).

Each compound was assayed on phospholipase D1 (assay: PLD activity in HCT116 cells ([3H]phosphatidylbutanol, TLC)). Details: compound 10 μM, cells without the compound = 100%.
Assay type: cell-based, human
Procedure: To evaluate the inhibitory effect of the compounds according to the present invention on phospholipase D1 activity, experiments were conducted as follows.
For the analysis of PLD activity in cells, human colon cancer cell line (HCT116) was cultured in a 6-well plate at 37° C. for 24 hours, washed twice with phosphate-buffered saline (PBS), and then replaced with medium containing [^3H]myristate and cultured for 24 hours. After the culture, the cells were washed three times with PBS, treated with 1-butanol, and the drug was added to a final concentration of 10 μM. The cells were trypsinized and suspended, and the amount of [^3H]phosphatidylbutanol produced in the cell suspension was measured and evaluated for PLD activity using thin layer chromatography (TLC), and the results are shown in Table 1 below.
The Remaining activity % at 10 μM in Table 1 is calculated by setting the amount of [^3H]phosphatidylbutanol produced in cells without the compound as 100% and calculating the amount of [^3H]phosphatidylbutanol produced in cells treated with the compound as a percentage. Therefore, the lower the value of Remaining activity %, the higher the PLD inhibitory activity.

Row | Structure (SMILES) | Remaining activity % at 10 μM
1 | O=C(Nc1ccc(Cl)c(Cl)c1)c1c[nH]c2ccccc12 [Example 1-4, N-(3,4-dichlorophenyl)-1H-indole-3-carboxamide] | 56.19%
2 | COc1ccc(NC(=O)Cc2c[nH]c3ccccc23)cc1OC [Example 1-28, N-(3,4-dimethoxyphenyl)-2-(1H-indol-3-yl)acetamide] | not active
3 | O=C(Cc1c[nH]c2ccccc12)NCCc1ccccc1 [Example 1-59, 2-(1H-indol-3-yl)-N-phenethylacetamide] | not active
4 | O=C(Cc1c[nH]c2ccccc12)Nc1ccccc1 [Example 1-23, 2-(1H-indol-3-yl)-N-phenylacetamide] | not active
5 | C#Cc1ccc(NC(=O)Cc2c[nH]c3ccccc23)cc1 [Example 1-31, N-(4-ethynylphenyl)-2-(1H-indol-3-yl)acetamide] | not active
6 | O=C(CCc1c[nH]c2ccccc12)Nc1cc(C(F)(F)F)cc(C(F)(F)F)c1 [Example 1-67, N-(3,5-bis(trifluoromethyl)phenyl)-3-(1H-indol-3-yl)propanamide] | 29.17%
7 | O=C(Nc1cc(O)cc(O)c1)c1cc2cc(F)ccc2[nH]1 [Example 1-112, N-(3,5-dihydroxyphenyl)-5-fluoro-1H-indole-2-carboxamide] | not active
8 | COc1ccc(CNC(=O)Cc2c[nH]c3ccccc23)c(OC)c1 [Example 1-44, N-(2,4-dimethoxybenzyl)-2-(1H-indol-3-yl)acetamide] | 54.83%
9 | Cn1c(C(=O)Nc2cc(C(F)(F)F)cc(C(F)(F)F)c2)cc2cc(F)c(F)cc21 [Example 1-114, N-(3,5-bis(trifluoromethyl)phenyl)-5,6-difluoro-1-methyl-1H-indole-2-carboxamide] | 48.24%
10 | O=C(Cc1c[nH]c2ccccc12)Nc1cc(F)cc(F)c1 [Example 1-18, N-(3,5-difluorophenyl)-2-(1H-indol-3-yl)acetamide] | 97.19%
11 | O=C(Cc1c[nH]c2ccccc12)OCc1ccc([N+](=O)[O-])cc1 [Example 1-115, 4-nitrobenzyl 2-(1H-indol-3-yl)acetate] | 55.24%
12 | CC(C)(C)c1ccc(CNC(=O)Cc2c[nH]c3ccccc23)cc1 [Example 1-41, N-(4-tert-butylbenzyl)-2-(1H-indol-3-yl)acetamide] | 59.99%
13 | O=C(NCc1ccc(O)c(O)c1)c1cc2cc(F)ccc2[nH]1 [Example 1-111, N-(3,4-dihydroxybenzyl)-5-fluoro-1H-indole-2-carboxamide] | 54.41%
14 | O=C(Cc1c[nH]c2ccccc12)NCc1cccc(F)c1 [Example 1-36, N-(3-fluorobenzyl)-2-(1H-indol-3-yl)acetamide] | 76.23%
15 | O=C(Nc1ccc(Br)cc1)c1c[nH]c2ccccc12 [Example 1-2, N-(4-bromophenyl)-1H-indole-3-carboxamide] | 85.52%
16 | O=C(Cc1c[nH]c2ccccc12)Nc1ccc(C(F)(F)F)cc1 [Example 1-26, 2-(1H-indol-3-yl)-N-(4-(trifluoromethyl)phenyl)acetamide] | 82.43%
17 | O=C(Nc1cc(C(F)(F)F)cc(C(F)(F)F)c1)c1cc2cc(C(F)(F)F)ccc2[nH]1 [Example 1-102, N-(3,5-bis(trifluoromethyl)phenyl)-5-(trifluoromethyl)-1H-indole-2-carboxamide] | 35.11%
18 | O=C(CCc1c[nH]c2ccccc12)Nc1cccc(Br)c1 [Example 1-64, N-(3-bromophenyl)-3-(1H-indol-3-yl)propanamide] | not active

Row | Structure (SMILES) | Remaining activity % at 10 μM
19 | O=C(CCCc1c[nH]c2ccccc12)Nc1ccc(Cl)c(Cl)c1 [Example 1-79, N-(3,4-dichlorophenyl)-4-(1H-indol-3-yl)butanamide] | 61.61%
20 | O=C(CCCc1c[nH]c2ccccc12)NCc1ccc(Cl)c(Cl)c1 [Example 1-82, N-(3,4-dichlorobenzyl)-4-(1H-indol-3-yl)butanamide] | 94.09%
21 | COc1ccc(CNC(=O)CCc2c[nH]c3ccccc23)cc1 [Example 1-71, 3-(1H-indol-3-yl)-N-(4-methoxybenzyl)propanamide] | 51.45%
22 | O=C(Cc1c[nH]c2ccccc12)Nc1ccc(F)cc1 [Example 1-14, N-(4-fluorophenyl)-2-(1H-indol-3-yl)acetamide] | not active
23 | O=C(Cc1c[nH]c2ccccc12)NCc1cccc(C(F)(F)F)c1 [Example 1-42, 2-(1H-indol-3-yl)-N-(3-(trifluoromethyl)benzyl)acetamide] | 34.44%
24 | O=C(CCCc1c[nH]c2ccccc12)Nc1cccc(F)c1 [Example 1-74, N-(3-fluorophenyl)-4-(1H-indol-3-yl)butanamide] | 72.65%
25 | COc1ccccc1NC(=O)Cc1c[nH]c2ccccc12 [Example 1-9, 2-(1H-indol-3-yl)-N-(2-methoxyphenyl)acetamide] | 80.82%
26 | O=C(Cc1c[nH]c2ccccc12)NCc1ccc(O)c(O)c1 [Example 1-107, N-(3,4-dihydroxybenzyl)-2-(1H-indol-3-yl)acetamide] | 88.12%
27 | COc1ccc(NC(=O)c2c[nH]c3ccccc23)cc1OC [Example 1-3, N-(3,4-dimethoxyphenyl)-1H-indole-3-carboxamide] | 62.73%
28 | COc1ccc(CNC(=O)Cc2c[nH]c3ccccc23)cc1OC [Example 1-45, N-(3,4-dimethoxybenzyl)-2-(1H-indol-3-yl)acetamide] | 41.05%
29 | O=C(Oc1cc(C(F)(F)F)cc(C(F)(F)F)c1)c1cc2cc(F)ccc2[nH]1 [Example 1-118, 3,5-bis(trifluoromethyl)phenyl 5-fluoro-1H-indole-2-carboxylate] | 49.17%
30 | O=C(Cc1c[nH]c2ccccc12)NNc1cccc(Cl)c1 [Example 1-52, N′-(3-chlorophenyl)-2-(1H-indol-3-yl)acetohydrazide] | 95.18%
31 | O=C(Cc1c[nH]c2ccccc12)NCc1ccncc1 [Example 1-58, 2-(1H-indol-3-yl)-N-(pyridin-4-ylmethyl)acetamide] | not active
32 | O=C(Cc1c[nH]c2ccccc12)NCc1cccnc1 [Example 1-57, 2-(1H-indol-3-yl)-N-(pyridin-3-ylmethyl)acetamide] | not active
33 | Cc1cccc(CNC(=O)Cc2c[nH]c3ccccc23)c1 [Example 1-40, 2-(1H-indol-3-yl)-N-(3-methylbenzyl)acetamide] | 95.87%
34 | O=C(Cc1c[nH]c2ccccc12)Nc1cc(C(F)(F)F)cc(C(F)(F)F)c1 [Example 1-32, N-(3,5-bis(trifluoromethyl)phenyl)-2-(1H-indol-3-yl)acetamide] | 40.95%
35 | O=C(CCCc1c[nH]c2ccccc12)Nc1cc(C(F)(F)F)cc(C(F)(F)F)c1 [Example 1-77, N-(3,5-bis(trifluoromethyl)phenyl)-4-(1H-indol-3-yl)butanamide] | 50.79%

Same assay, conditions: compound 10 μM, cells without the compound = 100%, 10 µM

Row | Structure (SMILES) | Remaining activity % at 10 μM
36 | O=C(NNc1ccc(Cl)c(Cl)c1)c1cc2ccccc2[nH]1 [Example 1-6, N′-(3,4-dichlorophenyl)-1H-indole-2-carbohydrazide] | 86.59%
